Experimental findings from publication PMC9332213, “Simple Detection of DNA Methyltransferase with an Integrated Padlock Probe” (Biosensors, 2022) are described below.

As usually defined, the IC50 is the point on the concentration scale where inhibition reaches its midpoint.

This assay deals with T1, M.SssI (Spiroplasma monobiae, UniProt P15840).
T1 construct: gene sssIM
Nature of the assay: padlock probe/RCA fluorescence methyltransferase activity assay with commercial M.SssI ([…] U/mL). It is filed as biochemical.

T1 sequence (P15840 whole entry): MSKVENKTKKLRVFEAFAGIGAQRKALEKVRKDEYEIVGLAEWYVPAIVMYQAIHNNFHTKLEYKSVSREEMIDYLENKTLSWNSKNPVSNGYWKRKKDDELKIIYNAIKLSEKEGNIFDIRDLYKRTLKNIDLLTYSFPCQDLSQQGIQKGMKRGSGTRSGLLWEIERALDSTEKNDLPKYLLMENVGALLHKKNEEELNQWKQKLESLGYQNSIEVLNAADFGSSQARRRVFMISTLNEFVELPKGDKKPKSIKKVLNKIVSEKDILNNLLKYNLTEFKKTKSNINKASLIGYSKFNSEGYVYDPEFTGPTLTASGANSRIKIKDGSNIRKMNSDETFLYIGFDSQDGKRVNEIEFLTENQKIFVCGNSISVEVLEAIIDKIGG

In turn, `Nc1ncn([C@@H]2O[C@H](CO)[C@@H](O)[C@H]2O)c(=O)n1` [5-Aza, 5-Azacytidine] registered an IC50 of 4.91 µM. The same measure for `O=c1[nH]cc(F)c(=O)[nH]1` [5-F, 5-fluorouracil]: 8.84 µM.
